# Reference: patent US20220062383A1, “REGULATION OF A FOREIGN BODY RESPONSE” (THE JOHNS HOPKINS UNIVERSITY, priority 2019, published 2022)
# Key:
# [1] = tested on: fibrosis around PCL implants (volumetric muscle loss model); test: Histology and immunofluorescence (αSMA, picrosirius red) of fibrosis around PCL implants after treatment; format: in vivo, C57BL/6 mice; conditions: PCL implant; treatment 4 weeks after implantation; tissue at 6 weeks; vs isotype or vehicle control
# Protocol: All animal procedures were performed in accordance with an approved JHU IACUC protocol. Female mice were aged six to eight weeks-old. Several strains were utilized, including wild type C57BL/6j (Jackson Laboratories, Stock #00064), Rag2/OT-II (Taconic Stock #11490), IL17A-/- and IL17RA-/- (courtesy of Dr. Yoichiro Iwakura, University of Tokyo, Tokyo, Japan and Dr. Tomas Mustelin, Amgen, Seattle, respectively). Defects in muscle for material implantation were created as previously described (68). The resulting bilateral muscle defects were filled with 30 mg of a synthetic material. Synthetic materials tested include PCL (particulate, Mn=50000 g/mol, mean particle size<600 μm, Polysciences), ultrahigh molecular weight PE (particulate, Mn=5000 k g/mol, mean particle size=150 μm, Goodfellow), medical graded Silicone (sheet, Summit Medical), PEG hydrogels. PEG hydrogels were made with polyethylene glycol-diacrylate (PEG-DA, Mn=3400). PEG-DA (Polysciences) in PBS at 10% w/v concentration was mixed with photoinitiator (Irgacure 2959 solubilized to 10% w/v in 70% ethanol) to a final concentration of 0.05%. A 50 μL volume solution was cast onto each well of a flat bottom 96 wells plate. The solution was photocrosslinked via UV light for 30 mins to form a hydrogel sheet. […] Co-administration of anti-I[…] and senolytic treatment were also evaluated. […]
# [2] = tested on: foreign body response to PCL implants (volumetric muscle loss model); test: qRT-PCR gene expression in tissue of PCL-implanted mice after IL17A/F NAb and/or senolytic treatment; format: in vivo, C57BL/6 mice; conditions: PCL implant
# Protocol: All animal procedures were performed in accordance with an approved JHU IACUC protocol. Female mice were aged six to eight weeks-old. Several strains were utilized, including wild type C57BL/6j (Jackson Laboratories, Stock #00064), Rag2/OT-II (Taconic Stock #11490), IL17A-/- and IL17RA-/- (courtesy of Dr. Yoichiro Iwakura, University of Tokyo, Tokyo, Japan and Dr. Tomas Mustelin, Amgen, Seattle, respectively). Defects in muscle for material implantation were created as previously described (68). The resulting bilateral muscle defects were filled with 30 mg of a synthetic material. Synthetic materials tested include PCL (particulate, Mn=50000 g/mol, mean particle size<600 μm, Polysciences), ultrahigh molecular weight PE (particulate, Mn=5000 k g/mol, mean particle size=150 μm, Goodfellow), medical graded Silicone (sheet, Summit Medical), PEG hydrogels. PEG hydrogels were made with polyethylene glycol-diacrylate (PEG-DA, Mn=3400). PEG-DA (Polysciences) in PBS at 10% w/v concentration was mixed with photoinitiator (Irgacure 2959 solubilized to 10% w/v in 70% ethanol) to a final concentration of 0.05%. A 50 μL volume solution was cast onto each well of a flat bottom 96 wells plate. The solution was photocrosslinked via UV light for 30 mins to form a hydrogel sheet. Both silicone and PEG hydrogels were morselized into particles with a scalpel and placed into the defect. Control implants were injected with 50 μL of PBS (as a no implant control). All materials were UV sterilized prior to use. Directly after surgery, mice were given subcutaneous carprofen (Rimadyl®, Zoetis) at 5 mg/kg for pain relief. Mice were euthanized, and their implants were extracted at different time points: 1, 3, 6, or 12-weeks post-surgery. Additional modes of implantation were subcutaneous and intra-muscular injection. Briefly, synthetic materials were implanted subcutaneously (30 mg) on both flanks of the mice, or injected directly into the quadricep muscles through a 16 G syringe (5 mg of materials). Total RNA was isolated from whole tissue using TRIzol reagent and Qiagen's RNeasy kits. qRT-PCR was performed using Power SYBR Green Master Mix (Applied Biosystems) or TaqMan Gene Expression Master Mix (Applied Biosystems) according to manufacturer's instructions. Briefly, 2 μg of total RNA was used to synthesize cDNA using Superscript IV VILO Master Mix (ThermoFisher Scientific). The cDNA concentration was set to 50 ng/well (in a total volume of 20 μL PCR reaction). The qRT-PCR reactions were performed on the StepOne Plus Real-Time PCR System (ThermoFisher Scientific) using manufacturer recommended settings for quantitative and relative expression. Mice received 100 μl intraperitoneal (IP) injections of anti-IL17A (100 μg/ml, Cat #P13705.15) and anti-IL17F (100 μg/ml, Cat #P56220.17) (provided by Amgen) or isotype control (rat IgG2a, ThermoFisher Scientific, Cat #02-9688) every other day for a week. IL6 blocking antibody was administrated at 100 μg/ml (BioXCell, clone MP5-20F3) per mouse per day for 5 consecutive days. For senolytic treatment, mice received IP and intramuscular (IM) injections of Navitoclax (100 mg/kg, Selleckchem, Cat #HY-10087) for 5 consecutive days or vehicle control (5% DMSO, 3% Tween 80 in PBS). Co-administration of anti-I[…] and senolytic treatment were also evaluated. All mice received treatments at 4-weeks post-surgery for a total of 5 injections (1 injection per day per mouse), and were harvested in the following 2 weeks. The nCounter differential gene expression system was used to assess readable transcripts via the nanoString PanCancer Immune Profiling Panel. We utilized the nSolver software (version 3.0, nanoString Technologies, Inc.). All analyses of qRT-PCR data utilized the Livak Method, wherein ΔΔCt values are calculated, and then reported as relative quantification values calculated by […] (69). Treatment data points are normalized to either healthy or saline treated controls. β2M was utilized as the reference gene. […]
# [3] = treatment 4 weeks after implantation, tissue at 6 weeks
# [4] = treatment at 4 weeks, 6 weeks after implantation
structure (smiles),measurement,setting,value
"CC1(C)CCC(c2ccc(Cl)cc2)=C(CN2CCN(c3ccc(C(=O)NS(=O)(=O)c4ccc(N[C@H](CCN5CCOCC5)CSc5ccccc5)c(S(=O)(=O)C(F)(F)F)c4)cc3)CC2)C1 [Navi, Navitoclax]",αSMA immunofluorescence,[1],reduced
same,p16INK4a gene expression (senolysis),"[2]; one week after treatment, 6 weeks after implantation, p<0.0001",significantly decreased
same,Il17a (IL17) gene expression,"[2]; treatment 4 weeks after implantation, 5 injections, tissue at 6 weeks, vs isotype or vehicle control",decreased
same,Collagen I gene expression,[2]; [3],decreased
same,Tgfβ gene expression,[2]; [3],decreased
same,Il16 gene expression,[2]; [4],decreased
same,S100a4 gene expression,[2]; [4],decreased
same,collagen III gene expression,[2]; [4],decreased
